Results from PubChem BioAssay AID1963435 (Molecular Pharmacology Branch, DTP, NCI, 2024).
Values joined by “and” are separate entries in the source; they are usually repeats but may differ in a detail not shown here. Equal entries are not always repeated.

System: PANC-1 complex spheroid growth, percent test/control
Assay: Anticancer human tumor PANC-1 cell line growth inhibition [Asc];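 also: spheroids exposed to agents for 7 days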;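 as to viability, T/C: percent viability relative to DMSO vehicle wells taken as 100%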
Conditions: for viability, T/C: stronger effect = lower value
Summary of the method: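 Spheroid model: tumor line + HUVEC + hMSC. Single agents and combinations; top conc. at/near clinical Cmax (10 microM if undetermined), half-log dilutions. DMSO stocks at 800-fold test concentration.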

SMILES: NC(=O)C(=Cn1cnc(-c2cc(C(F)(F)F)cc(C(F)(F)F)c2)n1)c1cncnc1
- viability, T/C (compound 0.000949 µM): 99.7% and 95.2% and 104%
- viability, T/C (compound 0.003 µM): 88.1% and 92.4% and 96.4%
- viability, T/C (compound 0.00949 µM): 92% and 89% and 111%
- viability, T/C (compound 0.03 µM): 89.8% and 103% and 102%
- viability, T/C (compound 0.0949 µM): 113% and 114% and 130%
- viability, T/C (compound 0.3 µM): 92.5% and 100% and 118%
- IC50 (curve of compound): > 0.3 µM

SMILES: C#Cc1c(F)ccc2cc(O)cc(-c3ncc4c(N5CC6CCC(C5)N6)nc(OCC56CCCN5CC(F)C6)nc4c3F)c12 (centres undefined) + Cc1c(S(C)(=O)=O)c(-c2cc(F)cc(N3CCN(c4ccc(NS(=O)(=O)c5ccc(NC(CCN6CCC(C(=O)OCCCP(=O)(O)O)CC6)CSc6ccccc6)c(S(=O)(=O)C(F)(F)F)c5)cc4)CC3)c2)c(-c2ccc(Cl)cc2)n1C(C)C
- IC50 (curve of first compound, second compound 0.0316 µM): > 10 µM
- IC50 (curve of first compound, second compound 0.1 µM): > 10 µM
- IC50 (curve of first compound, second compound 0.316 µM): > 10 µM
- IC50 (curve of first compound, second compound 1 µM): > 10 µM
- IC50 (curve of first compound, second compound 3.16 µM): > 10 µM
- IC50 (curve of first compound, second compound 10 µM): > 10 µM
- viability, T/C (second compound 0.0316 µM, first compound 0.0316 µM): 86.6%
- viability, T/C (second compound 0.0316 µM, first compound 0.1 µM): 84%
- viability, T/C (second compound 0.0316 µM, first compound 0.316 µM): 81.4%
- viability, T/C (second compound 0.0316 µM, first compound 1 µM): 87.2%
- viability, T/C (second compound 0.0316 µM, first compound 3.16 µM): 83.5%
- viability, T/C (second compound 0.0316 µM, first compound 10 µM): 72.6%
- viability, T/C (second compound 0.1 µM, first compound 0.0316 µM): 84.6%
- viability, T/C (second compound 0.1 µM, first compound 0.1 µM): 80.2%
- viability, T/C (second compound 0.1 µM, first compound 0.316 µM): 74.8%
- viability, T/C (second compound 0.1 µM, first compound 1 µM): 80.9%
- viability, T/C (second compound 0.1 µM, first compound 3.16 µM): 78%
- viability, T/C (second compound 0.1 µM, first compound 10 µM): 75.3%
- viability, T/C (second compound 0.316 µM, first compound 0.0316 µM): 88.7%
- viability, T/C (second compound 0.316 µM, first compound 0.1 µM): 77.5%
- viability, T/C (second compound 0.316 µM, first compound 0.316 µM): 76.2%
- viability, T/C (second compound 0.316 µM, first compound 1 µM): 74%
- viability, T/C (second compound 0.316 µM, first compound 3.16 µM): 88.2%
- viability, T/C (second compound 0.316 µM, first compound 10 µM): 69.8%
- viability, T/C (second compound 1 µM, first compound 0.0316 µM): 80.2%
- viability, T/C (second compound 1 µM, first compound 0.1 µM): 75.6%
- viability, T/C (second compound 1 µM, first compound 0.316 µM): 72.6%
- viability, T/C (second compound 1 µM, first compound 1 µM): 67.4%
- viability, T/C (second compound 1 µM, first compound 3.16 µM): 73.7%
- viability, T/C (second compound 1 µM, first compound 10 µM): 55.3%
- viability, T/C (second compound 3.16 µM, first compound 0.0316 µM): 72.4%
- viability, T/C (second compound 3.16 µM, first compound 0.1 µM): 62.9%
- viability, T/C (second compound 3.16 µM, first compound 0.316 µM): 59.9%
- viability, T/C (second compound 3.16 µM, first compound 1 µM): 60.1%
- viability, T/C (second compound 3.16 µM, first compound 3.16 µM): 59%
- viability, T/C (second compound 3.16 µM, first compound 10 µM): 56.8%
- viability, T/C (second compound 10 µM, first compound 0.0316 µM): 114%
- viability, T/C (second compound 10 µM, first compound 0.1 µM): 103%
- viability, T/C (second compound 10 µM, first compound 0.316 µM): 101%
- viability, T/C (second compound 10 µM, first compound 1 µM): 85.5%
- viability, T/C (second compound 10 µM, first compound 3.16 µM): 84.9%
- viability, T/C (second compound 10 µM, first compound 10 µM): 67.9%
